Values quoted from earlier work, collected in patent US20220265689A1, “HIV PRE-EXPOSURE PROPHYLAXIS” (THE UNITED STATES OF AMERICA ,AS REPRESENTED BY THE …, priority 2019, published 2022).

Tested on: HIV-1
Settings: HIV-1 T cells, activated PBMCs, macrophages

Structure (SMILES): CC(C)OC(=O)[C@H](C)N[P@](=O)(CO[C@H](C)Cn1cnc2c(N)ncnc21)Oc1ccccc1 [TAF, tenofovir alafenamide]
- enhanced anti-HIV activity relative to tenofovir: 500- to 10300 fold
